Legend:
human TLR7 = target: T1, human TLR7 (Homo sapiens, UniProt Q9NYK1); test: HEK Reporter Assay, HEK293 cells expressing human TLR7; type: cell-based; conditions: for EC50: HEK293 NFKB reporter cells expressing human TLR7, read-out: HEK293 hTLR7 EC50; for TLR7 activity relative to known TLR7 adjuvant C-1: HEK human TLR7 activity at 24 hours, FIG. 1
T1 construct: host or cells: HEK293 NF-kB reporter cells
T1 sequence (Q9NYK1 27-1049): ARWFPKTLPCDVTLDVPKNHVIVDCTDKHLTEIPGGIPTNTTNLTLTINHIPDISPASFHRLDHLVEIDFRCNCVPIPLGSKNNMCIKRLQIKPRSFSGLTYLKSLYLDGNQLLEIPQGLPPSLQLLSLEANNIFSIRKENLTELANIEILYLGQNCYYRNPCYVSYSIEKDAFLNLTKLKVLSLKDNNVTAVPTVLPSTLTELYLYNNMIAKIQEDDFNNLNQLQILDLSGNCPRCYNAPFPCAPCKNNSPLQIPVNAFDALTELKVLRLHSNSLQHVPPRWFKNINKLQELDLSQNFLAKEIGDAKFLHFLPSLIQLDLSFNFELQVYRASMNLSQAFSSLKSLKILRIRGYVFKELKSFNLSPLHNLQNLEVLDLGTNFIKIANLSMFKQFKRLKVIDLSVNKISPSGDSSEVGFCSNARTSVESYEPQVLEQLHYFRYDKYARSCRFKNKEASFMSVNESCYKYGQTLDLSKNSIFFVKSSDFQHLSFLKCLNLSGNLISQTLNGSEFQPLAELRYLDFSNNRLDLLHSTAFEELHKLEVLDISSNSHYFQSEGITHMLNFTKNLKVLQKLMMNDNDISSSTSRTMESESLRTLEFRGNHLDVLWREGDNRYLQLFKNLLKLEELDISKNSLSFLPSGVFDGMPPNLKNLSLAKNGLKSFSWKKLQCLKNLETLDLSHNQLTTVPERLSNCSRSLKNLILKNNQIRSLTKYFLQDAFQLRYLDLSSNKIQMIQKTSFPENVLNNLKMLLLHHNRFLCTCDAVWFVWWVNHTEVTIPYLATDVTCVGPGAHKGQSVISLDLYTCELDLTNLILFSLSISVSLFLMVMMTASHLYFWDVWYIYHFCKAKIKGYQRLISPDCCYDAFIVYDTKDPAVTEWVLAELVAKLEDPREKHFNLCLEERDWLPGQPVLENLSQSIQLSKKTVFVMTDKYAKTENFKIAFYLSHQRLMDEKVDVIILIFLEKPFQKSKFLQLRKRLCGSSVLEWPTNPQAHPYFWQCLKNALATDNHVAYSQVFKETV
Experimental: (§1) Activity against HEK293 NFKB reporter cells expressing human TLR7 or human TLR8 was measured according to Example 202.
(§2) Example 202 HEK Reporter Assay
(§3) HEK293 reporter cells expressing human TLR7 or human TLR8 were purchased from Invivogen and vendor protocols were followed for cellular propagation and experimentation. Briefly, cells were grown to 80-85% confluence at 5% CO2 in DMEM supplemented with 10% FBS, Zeocin, and Blasticidin. Cells were then seeded in 96-well flat plates at 4×10^4 cells/well with substrate containing HEK detection medium and immunostimulatory molecules.

human TLR8 = target: T2, human TLR8 (Homo sapiens, UniProt Q9NR97); test: HEK Reporter Assay, HEK293 cells expressing human TLR8; type: cell-based; conditions: for EC50: HEK293 NFKB reporter cells expressing human TLR8, read-out: HEK293 hTLR8 EC50
T2 construct: host or cells: HEK293 NF-kB reporter cells
T2 sequence (Q9NR97 27-1041): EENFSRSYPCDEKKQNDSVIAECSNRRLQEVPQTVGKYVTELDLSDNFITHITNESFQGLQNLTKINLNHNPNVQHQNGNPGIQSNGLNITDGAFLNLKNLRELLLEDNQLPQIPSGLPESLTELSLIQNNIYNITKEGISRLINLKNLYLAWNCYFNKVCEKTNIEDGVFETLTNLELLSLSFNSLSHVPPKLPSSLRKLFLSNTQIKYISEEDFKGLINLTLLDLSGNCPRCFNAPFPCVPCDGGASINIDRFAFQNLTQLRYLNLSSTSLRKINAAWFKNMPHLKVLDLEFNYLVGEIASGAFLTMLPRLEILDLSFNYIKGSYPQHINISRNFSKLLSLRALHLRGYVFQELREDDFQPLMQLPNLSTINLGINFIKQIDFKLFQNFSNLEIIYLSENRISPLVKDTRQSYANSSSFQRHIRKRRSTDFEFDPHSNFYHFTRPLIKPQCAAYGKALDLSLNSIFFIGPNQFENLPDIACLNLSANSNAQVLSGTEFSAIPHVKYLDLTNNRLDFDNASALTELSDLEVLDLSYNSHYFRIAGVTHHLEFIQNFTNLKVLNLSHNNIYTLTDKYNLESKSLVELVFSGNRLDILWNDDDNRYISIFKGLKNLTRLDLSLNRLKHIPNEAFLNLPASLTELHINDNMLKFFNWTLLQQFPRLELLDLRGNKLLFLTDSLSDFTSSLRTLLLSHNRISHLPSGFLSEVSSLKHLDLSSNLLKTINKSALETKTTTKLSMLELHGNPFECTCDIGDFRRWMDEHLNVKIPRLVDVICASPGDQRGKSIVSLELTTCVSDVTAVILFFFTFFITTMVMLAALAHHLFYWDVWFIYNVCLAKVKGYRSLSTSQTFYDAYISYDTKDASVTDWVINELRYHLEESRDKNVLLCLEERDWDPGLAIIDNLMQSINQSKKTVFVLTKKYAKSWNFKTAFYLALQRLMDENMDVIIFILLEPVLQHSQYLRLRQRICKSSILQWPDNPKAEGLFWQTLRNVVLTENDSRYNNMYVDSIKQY
Experimental: as §1, §2, §3

[1] = Hydrophilicity comparison with comparator C-2; type: physicochemical

SMILES | EC50 (human TLR7) [µM] | EC50 (human TLR8) [µM] | TLR7 activity relative to known TLR7 adjuvant C-1 (human TLR7) | hydrophilicity relative to C-2 [1] | TLR8 potency relative to known TLR8 adjuvant C-2 (human TLR8; HEK human TLR8 activity at 24 hours, FIG. 2)
CCCN(CCC)C(=O)C1=Cc2c(cnn2C)N=C(N)C1 [PAZ-1, 5-amino-1-methyl-N,N-dipropyl-1,6-dihydropyrazolo[4,3-b]azepine-7-carboxamide] | > 9 | 4.15 |  |  | 
CCCN(CCC)C(=O)C1=Cc2c(cnn2CCCCCN)N=C(N)C1 [PAZ-2, 5-amino-1-(5-aminopentyl)-N,N-dipropyl-6H-pyrazolo[4,3-b]azepine-7-carboxamide] | > 9 | 2.96 | comparable TLR7 activity |  | 
CCCN(CCC)C(=O)C1=Cc2nn(CCCCCN)cc2N=C(N)C1 [PAZ-3] | > 9 | > 9 |  |  | 
CCCN(CCC)C(=O)C1=Cc2ccc(-c3cccc(S(=O)(=O)N4CC(CO)C4)c3)cc2N=C(N)C1 [C-2, reference compound] | > 9 | 1.59 |  |  | 
CCCN(CCC)C(=O)C1=Cc2nn(C)cc2N=C(N)C1 [PAZ-6, 5-amino-2-methyl-N,N-dipropyl-6H-pyrazolo[4,3-b]azepine-7-carboxamide] | > 9 | 4.05 |  |  | 
CCCN(CCCNC(=O)CC(C)(C)C)C(=O)C1=Cc2c(cnn2CCCCCN)N=C(N)C1 [PAZ-7, 5-amino-1-(5-aminopentyl)-N-[3-(3,3-dimethylbutanoylamino)propyl]-N-propyl-6H-pyrazolo[4,3-b]azepine-7-carboxamide] | > 9 | > 9 |  |  | 
CCCN(CCC)C(=O)C1=Cc2nn(CCCCCNC(=O)OC(C)(C)C)cc2N=C(N)C1 [PAZ-5] | > 9 | > 9 |  |  | 
CCCN(CCC)C(=O)C1=Cc2c(cnn2CCCCCNC(=O)OC(C)(C)C)N=C(N)C1 [PAZ-4, tert-butyl N-[5-[5-amino-7-(dipropylcarbamoyl)-6H-pyrazolo[4,3-b]azepin-1-yl]pentyl]carbamate] | 2.92 | 3.1 |  |  | 

Now from value to molecule:

EC50 (human TLR7) [µM] | EC50 (human TLR8) [µM] | TLR7 activity relative to known TLR7 adjuvant C-1 (human TLR7) | hydrophilicity relative to C-2 [1] | TLR8 potency relative to known TLR8 adjuvant C-2 (human TLR8; HEK human TLR8 activity at 24 hours, FIG. 2) | SMILES
5.59 | > 9 |  |  |  | CCCN(CCC)C(=O)C1=Cc2c(cnn2Cc2ccc(CN)cc2)N=C(N)C1 [PAZ-14, 5-amino-1-[[4-(aminomethyl)phenyl]methyl]-N,N-dipropyl-6H-pyrazolo[4,3-b]azepine-7-carboxamide]
> 9 | > 9 |  |  |  | CCCN(CCCNC(=O)CC(C)(C)C)C(=O)C1=Cc2nn(CCCCCN)cc2N=C(N)C1 [PAZ-9, 5-amino-2-(5-aminopentyl)-N-[3-(3,3-dimethylbutanoylamino)propyl]-N-propyl-6H-pyrazolo[4,3-b]azepine-7-carboxamide]
2.75 | > 9 |  |  |  | CCCN(CCCNC(=O)CC(C)(C)C)C(=O)C1=Cc2c(cnn2CCCCCNC(=O)OC(C)(C)C)N=C(N)C1 [PAZ-8, tert-butyl N-[5-[5-amino-7-[3-(3,3-dimethylbutanoylamino)propyl-propyl-carbamoyl]-6H-pyrazolo[4,3-b]azepin-1-yl]pentyl]carbamate]
0.881 | 3.84 |  |  |  | CCCN(CCC)C(=O)C1=Cc2c(cnn2Cc2ccc(CNC(=O)OC(C)(C)C)cc2)N=C(N)C1 [PAZ-13, tert-butyl N-[[4-[[5-amino-7-(dipropylcarbamoyl)-6H-pyrazolo[4,3-b]azepin-1-yl]methyl]phenyl]methyl]carbamate]
3.21 | 0.29 |  |  |  | CCCN(OCC)C(=O)C1=Cc2c(cnn2CCCCCN)N=C(N)C1 [PAZ-12, 5-amino-1-(5-aminopentyl)-N-ethoxy-N-propyl-6H-pyrazolo[4,3-b]azepine-7-carboxamide]
0.795 | 1.49 | comparable TLR7 activity | improved hydrophilicity | better TLR8 potency | CCCN(OCC)C(=O)C1=Cc2c(cnn2CCCCCNC(=O)OC(C)(C)C)N=C(N)C1 [PAZ-11, tert-butyl N-[5-[5-amino-7-[ethoxy(propyl)carbamoyl]-6H-pyrazolo[4,3-b]azepin-1-yl]pentyl]carbamate]
> 9 | 3.23 |  |  |  | CCCN(CCCNC(=O)CC(C)(C)C)C(=O)C1=Cc2nn(CCCCCNC(=O)OC(C)(C)C)cc2N=C(N)C1 [PAZ-10, tert-butyl N-[5-[5-amino-7-[3-(3,3-dimethylbutanoylamino)propyl-propyl-carbamoyl]-6H-pyrazolo[4,3-b]azepin-2-yl]pentyl]carbamate]
> 9 | > 9 |  |  |  | CCCN(CCCNC(=O)OC1CCC1)C(=O)C1=Cc2c(cnn2CCCCCN)N=C(N)C1 [PAZ-15, cyclobutyl (3-(5-amino-1-(5-aminopentyl)-N-propyl-1,6-dihydropyrazolo[4,3-b]azepine-7-carboxamido)propyl)carbamate]

Source: US20230263903A1, “PYRAZOLOAZEPINE IMMUNOCONJUGATES, AND USES THEREOF” (BOLT BIOTHERAPEUTICS, INC., priority 2020, published 2023)
